Measurements: ChEMBL document CHEMBL1156293, “Synthesis of a novel tricyclic 1,2,3,4,4a,5,6,10b-octahydro-1,10-phenanthroline ring system and CXCR4 antagonists with potent activity against HIV-1” (Bioorg Med Chem Lett, 2010)

How the values were obtained:
[1] = system: Human immunodeficiency virus 1; experiment: Antiviral activity against HIV1 3B in human HOS cells expressing human […]/pHIV-LTR-luciferase assessed as blockade of viral infection into cells; type: functional, organism-based; settings: Human immunodeficiency virus 1, 3B
[2] = Cytotoxicity against human HOS cells; type: cell-based
[3] = Volume of distribution at steady state in rat at 1 mg/kg, iv; type: ADME, organism-based; design: dose 1 mg/kg, route intravenous; settings: in vivo, read-out: Vdss
[4] = Volume of distribution at steady state in dog at 1 mg/kg, iv; type: ADME, organism-based, Canis lupus familiaris; design: dose 1 mg/kg, route intravenous; settings: in vivo, read-out: Vdss
[5] = Half life in rat at 3 mg/kg, po; type: ADME, organism-based; design: dose 3 mg/kg, route oral; settings: in vivo
[6] = Half life in dog at 3 mg/kg, po; type: ADME, organism-based, Canis lupus familiaris; design: dose 3 mg/kg, route oral; settings: in vivo
[7] = system: Rattus norvegicus; experiment: Dose normalized AUC in rat at 3 mg/kg, po; type: ADME, organism-based; design: dose 3 mg/kg, route oral; settings: in vivo
[8] = system: Canis familiaris; experiment: Dose normalized AUC in dog at 3 mg/kg, po; type: ADME, organism-based, Canis lupus familiaris; design: dose 3 mg/kg, route oral; settings: in vivo

| SMILES | IC50 [1] | CC50 [2] | other results |
| --- | --- | --- | --- |
| CN(C)C1CCN(c2cccc3nc(CN4CCC[C@H]5CCc6cccnc6[C@H]54)cn23)CC1 | 15 nM | 3850 nM | – |
| CN(C)CCCn1c(CN2CCC[C@@H]3CCc4cccnc4[C@H]32)nc2ccccc21 | 140 nM | 3500 nM | – |
| c1cnc2c(c1)CC[C@@H]1CCCN(Cc3cn4c(N5CCN6CCCC6C5)cccc4n3)[C@H]21 (some centres undefined) | 2 nM | 2980 nM | – |
| CN1CCC(N(C)c2cccc3nc(CN4CCC[C@H]5CCc6cccnc6[C@H]54)cn23)C1 (some centres undefined) | 9 nM | 1570 nM | – |
| CN(C)CCCn1c(CN2CCC[C@H]3CCc4cccnc4[C@H]32)nc2ccccc21 | 35 nM | 6000 nM | – |
| CN(C)CCN(C)c1cccc2nc(CN3CCC[C@H]4CCc5cccnc5[C@H]43)cn12 | 5 nM | 1450 nM | – |
| c1cnc2c(c1)CC[C@@H]1CCCN(Cc3cn4c(N5CCOCC5)cccc4n3)[C@H]21 | 1200 nM | 6600 nM | – |
| CN1CCC(N(C)c2cccc3nc(CN4CCC[C@H]5CCc6cccnc6[C@H]54)cn23)CC1 | 38 nM | 1300 nM | – |
| CN1CCN(c2cccc3nc(CN4CCC[C@@H]5CCc6cccnc6[C@H]54)cn23)CC1 | 50 nM | 9900 nM | – |
| CN1CCN(c2cccc3nc(CN4CCCC5CCc6cccnc6C54)cn23)CC1 (racemic) | 32 nM | 9600 nM | – |
| CN(C)CCCn1c(CN2CCC[C@@H]3CCc4cccnc4[C@@H]32)nc2ccccc21 | 530 nM | 4200 nM | – |
| CN1CCN(c2cccc3nc(CN(C)[C@H]4CCCc5cccnc54)cn23)CC1 | – | – | Vd [3]: 5.5 L/kg; Vd [4]: 7.6 L/kg; half-life [5]: 4.9 h; half-life [6]: 8.5 h; AUC [7]: 100 ng·h/mL/(mg/kg); AUC [8]: 160 ng·h/mL/(mg/kg) |
| CN1CCN(c2cccc3nc(CN4CCC[C@@H]5CCc6cccnc6[C@@H]54)cn23)CC1 | 100 nM | 8500 nM | – |
| CN(C)CCCn1c(CN2CCC[C@H]3CCc4cccnc4[C@@H]32)nc2ccccc21 | 330 nM | 3700 nM | – |
| CN(C)[C@@H]1CCN(c2cccc3nc(CN4CCC[C@H]5CCc6cccnc6[C@H]54)cn23)C1 | 21 nM | 1600 nM | – |
